Source: patent US11685761B2, “Cyclic di-nucleotide compounds as sting agonists” (Merck Sharp & Dohme Corp., priority 2017, dated 2023)
Like-named read-outs stand apart in the source and are kept apart here.

Columns and labels:
[1] = molecular target: T1, full-length HAQ STING (Homo sapiens, UniProt Q86WV6, G230A/H232R/R293Q/R71H); experiment: 3H-cGAMP filtration binding assay (HAQ STING); details: competition with tritiated cGAMP ligand; T. ni cell membranes overexpressing full-length HAQ STING
T1 construct: made in house; host or cells: Trichoplusia ni (Hi-Five) insect cells, baculovirus generated in Sf21; crude membranes
Excerpt: The ability of compounds to bind STING is quantified by the ability to compete with tritiated cGAMP ligand for human STING receptor membrane using a radioactive filter-binding assay. The binding assay employs STING receptor obtained from Hi-Five cell membranes overexpressing full-length HAQ STING prepared in-house and tritiated cGAMP ligand also purified in-house.
The ability of compounds to bind STING is quantified by their ability to compete with tritiated cGAMP ligand for human STING receptor membrane using a radioactive filter-binding assay. The binding assay employs STING receptor obtained from Trichoplusia ni cell membranes (T. ni; Expression Systems, cat #94-002F, www.expressionsystems.com) overexpressing full-length HAQ STING and tritiated cGAMP ligand.
The basic HAQ STING filtration assay protocol is as follows:
The compounds were serially titrated by the Hamilton STARPlus CORE in a 96-well plate (Greiner, #651201) using a 1:3 ten-point dose response format. […] 148 uL of prepared membrane was then manually added to each well of a 96-well deep-well polypropylene plate (Fisher Scientific, #12-566-121). Following membrane addition, 2 uL of either titrated test compound, DMSO control (Sigma #276855), or cold cGAMP control was added to the appropriate wells using a BIOMEK FX. Compound and membrane then preincubated for 60 min at RT to allow compound binding to equilibrate. Following equilibration, 8 nM of [^3H] c-GAMP ligand was prepared by diluting into assay buffer, and 50 uL of this working stock was then manually added to each well of the assay plate. Plates were then incubated at RT for 60 min, and the contents of each assay plate were then filtered through a 96-well GF/B filter plate (PerkinElmer, #6005250) using a TOMTEC MACH III Cell Harvester equipped with 20 mM HEPES buffer (Fisher Scientific, #BP299500). The filter plates were then dried at 55° C. for 30 min using a pressurized oven before 30 uL of ULTIMA GOLD F scintillate was added to each well. Tritium levels for each reaction well were then measured using a PerkinElmer TopCount plate reader.
After normalization to controls, the percent activity for each compound concentration was calculated by measuring the amount of remaining radioactivity. The plot of percent activity versus the log of compound concentration was fit with a 4-parameter dose response equation to calculate EC50 values.

[2] = tested on: IFN-β secretion from THP1 cells; experiment: IFN-β secretion in THP1 cell culture (5 h); format: cell-based, human; details: for activation at 30 µM: Homo sapiens, THP-1, 5 h, read-out: % Effect at 30 μM relative to 2′3′-cGAMP
Protocol: The ability of compounds to stimulate the secretion of interferon-beta from THP1 cells was measured using a human IFN-β AlphaLISA kit (Perkin Elmer, Cat. No. AL265F). The basic protocol is as follows:
The cell viability and count was ascertained using a Beckman Coulter V-Cell XR cell counter. The cell suspension was centrifuged at 200×g for 5 min at RT. Cells were resuspended to a density of 0.8×10^6/mL in 37° C. assay medium. Subsequent liquid transfers were performed using either a Matrix electronic multichannel pipette or an Agilent Bravo Automated Liquid Handling Platform.
The assay was started by dispensing 40 μL of the previously prepared cell suspension into the wells of the plate containing compounds. After 5 h incubation at 37° C., 5% CO2 in a humidified atmosphere, the plate of cells and compounds was centrifuged at 200×g for 5 min at RT. […] To these supernatant-containing wells was added 10 μL of 5× Anti-Analyte Acceptor beads (50 μg/mL of AlphaLISA HiBlock Buffer) and incubated for 30 min at RT while shaking on an orbital plate shaker. To each well was added 10 μL of 5× Biotinylated Antibody Anti-analyte (5 nM in AlphaLISA HiBlock Buffer) and incubated on an orbital plate shaker for 60 min at RT or overnight at 4° C. To each well was added 25 μL of 2× SA-Donor beads (80 μg/mL in AlphaLISA HiBlock Buffer) and incubated for 30-45 min at RT in the dark while shaking on an orbital plate shaker. The plate was then read on a Perkin Elmer Envision (λex680 nm, λem=570 nm). The percent effect of the AlphaLISA signal at each compound concentration was calculated based on 30 uM cGAMP positive controls and 0.3% DMSO negative controls. The plot of percent effect versus the log of compound concentration was fit with a 4-parameter concentration response equation to calculate EC50 values.
Compounds of the disclosure were evaluated for IFN-β secretion in THP1 cell culture as described above.

[3] = THP1 cells, 5 h incubation, compound at 30 μM, 30 uM cGAMP = 100%

T1 sequence (Q86WV6 with tags, fused parts or gaps R71H/G230A/H232R/R293Q): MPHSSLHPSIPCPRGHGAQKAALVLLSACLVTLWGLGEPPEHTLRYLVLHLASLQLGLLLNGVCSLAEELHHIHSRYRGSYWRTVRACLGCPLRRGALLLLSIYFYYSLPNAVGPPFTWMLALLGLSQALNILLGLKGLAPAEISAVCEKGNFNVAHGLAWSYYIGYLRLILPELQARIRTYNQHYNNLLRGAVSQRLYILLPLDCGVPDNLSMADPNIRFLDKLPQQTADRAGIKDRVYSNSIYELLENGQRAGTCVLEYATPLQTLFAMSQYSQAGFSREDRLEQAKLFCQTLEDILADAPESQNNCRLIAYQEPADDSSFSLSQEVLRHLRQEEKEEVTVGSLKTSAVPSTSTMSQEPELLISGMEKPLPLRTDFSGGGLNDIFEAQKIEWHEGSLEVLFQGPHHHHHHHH

Compound	EC50 [1]	activation at 30 µM [2, 3]	% Effect at 30 μM relative to 2′3′-cGAMP [2, 3]	% Effect at 30 μM relative to 2′3′-cGAMP [2]
Nc1ncnn2c([C@H]3C[C@@H]4O[P@@](=O)(S)OC[C@H]5O[C@@H](n6ccc(=O)n7ccnc67)[C@H](O[P@](=O)(S)OC[C@H]4O3)[C@@H]5O)cnc12 [Example 7, 8-[(2S,5R,7R,8R,10R,12aR,14R,15aS,16R)-14-(4-aminoimidazo[2,1-f][1,2,4]triazin-7-yl)-16-hydroxy-2,10-dioxido-2,10-disulfanyl-octahydro-12H-5,8-methanofuro[3,2-l][1,3,6,9,11,2,10]pentaoxadiphosphacyclotetradecin-7-yl]imidazo [1,2-a]pyrimidin-5(8H)-one]	2 nM	140%	–	–
Nc1nc2c(ncn2[C@@H]2O[C@@H]3COP(=O)(S)O[C@H]4[C@@H](O)[C@H](n5cnc6c(=O)[nH]c7nccn7c65)O[C@@H]4COP(=O)(S)O[C@@H]2[C@@H]3F)c(=O)[nH]1 (single isomer, unassigned) [Example 33]	90 nM	–	83%	–
Nc1ncnc2c1ncn2[C@@H]1O[C@@H]2COP(=O)(S)O[C@H]3[C@H](F)[C@H](n4ccc5c(=O)[nH]cnc54)O[C@@H]3COP(=O)(S)O[C@@H]1C2 (single isomer, unassigned) [Example 47]	460 nM	–	13%	–
Nc1ncnc2c1ncn2[C@@H]1S[C@@H]2CO[P@](=O)(S)O[C@@H]3[C@H](O)[C@@H](CO[P@@](=O)(S)O[C@H]2[C@H]1O)O[C@H]3n1ccc(=O)n2ccnc12 (single isomer, unassigned) [Example 11]	1740 nM	5%	–	–
Nc1ncnc2c1ncn2[C@@H]1O[C@@]23CO[C@@H]1[C@@H]2OP(=O)(S)OC[C@H]1O[C@@H](n2cnc4c(=O)n5cc[nH]c5nc42)[C@H](OP(=O)(S)OC3)[C@@H]1F (single isomer, unassigned) [Example 27]	61 nM	–	143%	–
Nc1cc2c(ncn2[C@@H]2O[C@@H]3COP(=O)(S)O[C@H]4[C@H](F)[C@H](n5ccc6c(=O)[nH]cnc65)O[C@@H]4COP(=O)(S)O[C@@H]2[C@@H]3F)c(=O)[nH]1 (stereo partly drawn) [Example 51, 6-amino-1-[(5R,7R,8S,12aR,14R,15S,15aR,16R)-15,16-difluoro-2,10-dioxido-14-(4-oxo-3,4-dihydro-7H-pyrrolo[2,3-d]pyrimidin-7-yl)-2,10-disulfanyl-octahydro-12H-5,8-methanofuro[3,2-l] [1,3,6,9,11,2,10]pentaoxadiphosphacyclotetradecin-7-yl]-1,5-dihydro-4H-imidazo[4,5-c]pyridin-4-one]	13 nM	113%	–	–
Nc1ncnn2c([C@H]3C[C@@H]4O[P@](=O)(S)OC[C@H]5O[C@@H](n6ccc(=O)n7ccnc67)[C@H](O[P@@](=O)(S)OC[C@H]4O3)[C@@H]5O)cnc12 (single isomer, unassigned) [Example 9]	23 nM	80%	–	–
Nc1ncnc2c1ncn2[C@@H]1S[C@@H]2CO[P@@](=O)(S)O[C@@H]3[C@H](O)[C@@H](CO[P@@](=O)(S)O[C@H]2[C@H]1O)O[C@H]3n1ccc(=O)n2ccnc12 (single isomer, unassigned) [Example 10]	3 nM	183%	–	–
Nc1ncnc2c1ncn2[C@@H]1O[C@@]23CO[C@@H]1[C@@H]2OP(=O)(S)OC[C@H]1O[C@@H](n2cnc4c(=O)n5cc[nH]c5nc42)[C@H](OP(=O)(S)OC3)[C@@H]1F (single isomer, unassigned) [Example 26]	19 nM	–	153%	–
Nc1ncnn2c([C@H]3C[C@@H]4O[P@](=O)(S)OC[C@H]5O[C@@H](n6ccc(=O)n7ccnc67)[C@H](O[P@](=O)(S)OC[C@H]4O3)[C@@H]5O)cnc12 (single isomer, unassigned) [Example 8]	23 nM	128%	–	–
Nc1ccnc2c1ccn2[C@H]1C[C@@H]2OP(=O)(S)OC[C@H]3O[C@@H](n4ccc(=O)n5ccnc45)[C@H](OP(=O)(S)OC[C@H]2O1)[C@@H]3O (stereo partly drawn) [Example 34, 8-[(5R,7R,8R,12aR,14R,15aS,16R)-14-(4-amino-1H-pyrrolo[2,3-b]pyridin-1-yl)-16-hydroxy-2,10-dioxido-2,10-disulfanyloctahydro-12H-5,8-methanofuro[3,2-l][1,3,6,9,11,2,10]pentaoxadiphosphacyclotetradecin-7-yl]imidazo[1,2-a]pyrimidin-5(8H)-one]	1120 nM	157%	–	–
Nc1nc2c(ncn2[C@@H]2O[C@@H]3COP(=O)(S)O[C@H]4C[C@H](n5ccc6c(=O)[nH]cnc65)O[C@@H]4COP(=O)(S)O[C@@H]2[C@@H]3F)c(=O)[nH]1 (single isomer, unassigned) [Example 35]	11 nM	–	–	98%
Nc1ccnc2c1nnn2[C@H]1C[C@@H]2OP(=O)(S)OC[C@H]3O[C@@H](n4ccc(=O)n5ccnc45)[C@H](OP(=O)(S)OC[C@H]2O1)[C@@H]3O (stereo partly drawn) [Example 18, 8-[(5R,7R,8R,12aR,14R,15aS,16R)-14-(7-amino-3H-[1,2,3]triazolo[4,5-b]pyridin-3-yl)-16-hydroxy-2,10-dioxido-2,10-disulfanyloctahydro-12H-5,8-methanofuro[3,2-l][1,3,6,9,11,2,10]pentaoxadiphosphacyclotetradecin-7-yl]imidazo[1,2-a]pyrimidin-5(8H)-one]	126 nM	124%	–	–
Nc1nc2c(ncn2[C@@H]2O[C@@H]3COP(=O)(S)O[C@H]4C[C@H](n5ccc6c(=O)[nH]cnc65)O[C@@H]4COP(=O)(S)O[C@@H]2[C@@H]3F)c(=O)[nH]1 (single isomer, unassigned) [Example 36]	2 nM	94%	–	–
Nc1ncnc2c1ncn2[C@@H]1S[C@@H]2COP(=O)(S)OC3[C@H](n4cnc5c(=O)n6cc[nH]c6nc54)O[C@H](COP(=O)(S)OC2C1O)[C@H]3F (stereo in doubt) [Example 17, 3-[(5R,7R,8R,12aR,14R,15S,15aR,16R)-14-(6-amino-9H-purin-9-yl)-16-fluoro-15-hydroxy-2,10-dioxido-2,10-disulfanyloctahydro-12H-5,8-methanothieno[3,2-l][1,3,6,9,11,2,10]pentaoxadiphosphacyclotetradecin-7-yl]-3,5-dihydro-9H-imidazo[1,2-a]purin-9-one]	3 nM	122%	–	–
Nc1ncnc2c1ncn2[C@@H]1S[C@@H]2CO[P@@](=O)(S)O[C@@H]3[C@H](O)[C@@H](CO[P@](=O)(S)O[C@H]2[C@H]1O)O[C@H]3n1ccc(=O)n2ccnc12 (single isomer, unassigned) [Example 12]	156 nM	123%	–	–
